Consider twelve molecules from US4216216A, “Aromatic piperazinyl substituted dihydrouracils” (Hoechst Aktiengesellschaft, priority 1977, dated 1980).

Series [1] has as its system thrombocyte aggregation. Nature of the series: Thrombocyte aggregation inhibiting activity (ADP-induced, platelet-rich plasma). Format: cell-based, beagle dogs. On the procedure:
Thrombocyte aggregation was induced experimentally in platelet-rich plasm (PRP) of beagle dogs by in vitro administration of adenosine diphosphate (ADP) in a final concentration of 2.5×10^-6 and was measured by means of a universal aggregometer (manufactured by B. Braun/Melsungen). An Eppendorf Photometer recorded the change in the optical density of the plasma.
The following parameters were determined:
1. The angle, α, between the tangent at the starting point of the curve and the horizontal axis,
2. The time, Tr, from the start of rotation (aggregation) until complete disaggregation,
3. The maximum amplitude (Ma) of the aggregation curve as the difference between starting transmission and maximum transmission.

In series [2] the test system is serotonin spasm in the isolated uterus of rats. The series is described as follows: Test b: serotonin antagonism in the isolated uterus of rats. Type of series: cell-based, rats (Sprague-Dawley). The settings on record: isolated rat uterus; serotonin 10^-8 g/ml bath; 22° C.; read-out: ED50 (the source's name). How it is done: (§1) For determination of the serotonin-antagonistic activity the following pharmacological tests were used: Test a: (Test according to Konzett and Rossler (Arch. exp. Path. Pharmak. 195 (1940) 71). Domestic albino guinea pigs were anaesthetised with 1.25 g/kg of urethane intraperitoneally (i.p.). Bronchial resistance was recorded in the open thorax by a recorder ("bronchotransducer") manufactured by the firm Ugo Basile (Milan); respiratory frequency was kept constant by artificial respiration at a frequency of 58 strokes/minute, the inflation pressure was 9 cm H2 O column. To induce bronchospasms, 5 to […] of serotonin (as serotonin-creatinine sulphate) were injected into one of the jugular veins every 15 minutes in a volume of 0.1 ml/kg body weight. The test substances were administered in a volume of 1 ml/kg either intravenously within 30 seconds, 2 minutes before generation of the serotonin spasm or intraduodenally or orally by oesphageal tube 15 minutes before the spasm. […] The results are given in Table I. Test b: (Serotonin antagonism in the isolated uterus of rats according to Robert A. Turner: Screening Methods in Pharmacology, Academic Press 1965 (New York and London)) Female Sprague-Dawley rats with a weight of 180 to 240 g were given intraperitoneally 2 mg of Oestromon (Merck, Darmstadt) 24 hours before extraction of the uterus in order to induce oestrus. The organ bath was kept at 22° C. and contained a Tyrode solution having a specific composition. The test substance was added to the bath in aqueous solution with a total volume of 0.1 ml. The serotonin concentration administered was 10^-8 g/ml bath. The ED50 value corresponded to the dose by which a serotonin spasm is inhibited by 50%. Test c: (5-Hydroxy-L-tryptophan antagonism in mice). A single administration of 5-hydroxy-L-tryptophan causes in mice a strong increase in defecation due to the increased biosynthesis of serotonin from exogenically supplied amino acids. This defecation effect can be reduced by serotonin antagonists. The test substances were administered orally 45 minutes before administration of the tryptophan. The tryptophan dose was 40 mg/kg i.p.

In series [3] the test system is mice. To be noted: i.v., Speigt and Avery, Drugs 3, 159-203 (1972), 10080 min; cited from earlier work.
Series [4] has as its system 5-Hydroxy-L-tryptophan. The series is described as follows: Test c: 5-Hydroxy-L-tryptophan antagonism in mice (defecation). Type of series: in vivo. To be noted: 5-hydroxy-L-tryptophan 40 mg/kg i.p. On the procedure: as §1
Evaluation was carried out 1 hour after administration of the preparation by measurement of the quantity of faeces produced. A reduction in this quantity by not more than 25% of the control is indicated, according to the result, by 0 or (+), from 25 to 50% by +, from 50 to 75% by ++ and over 75% +++ (see Table I).

Series [5] concerns serotonin spasm (bronchospasm). The series is described as follows: Test a: inhibition of serotonin-induced bronchospasm (Konzett and Rossler). Type of series: in vivo. The settings on record: Cavia porcellus, guinea pigs. How it is done: as §1
For series [6], the system named is rats. The settings on record: i.v., Speigt and Avery, Drugs 3, 159-203 (1972), 10080 min; cited from earlier work.
The nature of series [7]: Acute toxicity, mice. To be noted: mouse, in vivo, mortality within 7 days. An excerpt:
(§2) Table III sets out for some compounds, the toxicity determined in mice and rats after intraperitoneal and intravenous administration over the mortality occurring within 7 days as LD50 or LD50 range.

Series [8] is described as follows: pH value of aqueous solution. Type of series: physicochemical. To be noted: for pH value of a 0.1% aqueous solution: 0.1% solution.
Series [9] deals with thrombocyte aggregation. The settings on record: background statement; cited from earlier work.
Series [10] concerns serotonin. To be noted: background statement; cited from earlier work.
Series [11] in a line: Acute toxicity, rats. The settings on record: rat, in vivo, iv, mortality within 7 days.
Text: as §2

[12] abbreviates: 0.25 h, i.d. (intraduodenal), 15 minutes after administration.
[13] abbreviates: iv, 2 min, i.v., 2 minutes after injection.
Setting [14] is: po, 0.25 h, p.o., 15 minutes after administration.
The mark [15] stands for this setting: Canis lupus familiaris, final concentration 10^-4 g/ml, read-out: Change of Ma in %.
[16] abbreviates: final concentration 3 × 10^-5 g/ml.

In brackets after ≈: the same amount, converted by molar mass. Counter-ions that a name gives are not always drawn.

In the case of `CN(C)CCCOC1(Cc2ccccc2)CCCCCC1` [Fludilate, reference compound], in [1] (final concentration 10^-4 g/ml), the “Change of Ma in %” value is recorded as -34%; the “Ma, maximum amplitude of the aggregation curve” value (“Ma, maximum amplitude” for short) was determined as 324; the “Tr, time from start of rotation (aggregation) until complete disaggregation” value (“Tr, time from start of rotation” below) was determined as 2.6 min; the “angle α between the tangent at the starting point of the curve and the horizontal axis” value (“angle α between the tangent” for short) is 85.2.
By LD50 is commonly meant the dose at which mortality reaches 50%. The ED50 is the dose at which the effect has come halfway, by size or by number of responders. A higher ED50 goes with weaker potency. As for `CN1CCC(=C2c3ccccc3CCc3sccc32)CC1` [Pizotyline-HCl, reference compound], the IC50 in series [2] was 1 to 10 ng/mL. Also, the median lethal dose (LD50) in series [3] was 43 ± 1.8 mg/kg; in [6] it was 17 ± 1.1 mg/kg. The “Strength of activity (reduction in quantity of faeces)” value in [4] (20 mg/kg p.o.) is reported as “+ (from 25 to 50%)”. The ED50 in series [5] (setting [12]) fell in the range of 0.01 to 0.1 mg/kg; in [5] (setting [13]), 0.01 to 0.05 mg/kg; in [5] (setting [14]) it was 0.5 to 1 mg/kg.
As for `CC1(C)CC(=O)N(CCCN2CCN(c3ccc(F)cc3)CC2)C(=O)N1` [compound 11], the 50% effective dose (ED50) in series [5] (setting [13]) is 0.01 to 0.03 mg/kg. The LD50 at 168 h in series [7] (ip) is 100 to 300 mg/kg.
For `CN1C(=O)N(CCCN2CCN(c3ccccc3)CC2)C(=O)CC1(C)C` [compound 26], the “pH value of a 0.1% aqueous solution” value in series [8] was “around 3.0”.
With `CN(C)CCCOC1(Cc2ccccc2)CCCCCC1` [Bencyclane], in [9], the “inhibition of thrombocyte aggregation” value is “inhibiting thrombocyte aggregation”. Besides, in [10], the serotonin antagonism result was “weak serotonin antagonism”.
Turning to `CC1(C)CC(=O)N(CCCN2CCN(c3ccccc3)CC2)C(=S)N1` [compound 16], in series [2], the IC50 lay in the range of 1 to 10 ng/mL (≈ 2.77 to 27.7 nM). The “Strength of activity (reduction in quantity of faeces)” value in [4] (10 mg/kg p.o.) and in series [4] (20 mg/kg p.o.) was “+ (from 25 to 50%)” throughout. Further, the ED50 in [5] (setting [12]) was 0.3 mg/kg; in [5] (setting [13]), 0.01 to 0.03 mg/kg; in series [5] (setting [14]), around 0.3 mg/kg. Also, the median lethal dose (LD50) at 168 h in series [7] (ip) is 200 to 400 mg/kg; in series [7] (iv) it was 40 to 63 mg/kg. Further, in [1] (setting [15]), the inhibition at 100 µg/mL stood at 42%. Moreover, the “Ma, maximum amplitude” value in series [1] (final concentration 10^-4 g/ml) is reported as 315. In addition, the “Tr, time from start of rotation” value in series [1] (final concentration 10^-4 g/ml) is given as 1.8 min. In addition, the “angle α between the tangent” value in [1] (final concentration 10^-4 g/ml) is given as 86.3.
`CC1NC(=O)N(CCCN2CCN(c3ccccc3)CC2)C(=O)C1C` (stereo not shown) [compound 17]: the IC50 in [2] fell in the range of 1 to 10 ng/mL (≈ 2.9 to 29 nM). Further, the “Strength of activity (reduction in quantity of faeces)” value in series [4] (10 mg/kg p.o.) is “+ (from 25 to 50%)”; in series [4] (20 mg/kg p.o.), “++ (from 50 to 75%)”. The 50% effective dose (ED50) in [5] (setting [12]) was in the range of 0.01 to 0.03 mg/kg; in [5] (setting [13]) it was 0.001 to 0.003 mg/kg. For the same molecule, the LD50 at 168 h in series [7] (iv) was 54 mg/kg; in series [11], 25 to 40 mg/kg. In series [1] (setting [15]), the inhibition at 100 µg/mL turned out to be 18%. The “Ma, maximum amplitude” value in [1] (final concentration 10^-4 g/ml) is reported as 344. Moreover, in series [1] (final concentration 10^-4 g/ml), the “Tr, time from start of rotation” value came to 2.3 min. In series [1] (final concentration 10^-4 g/ml), the “angle α between the tangent” value amounted to 85.9.
Regarding `CC1(C)CC(=O)N(CCCN2CCN(c3ccccc3)CC2)C(=O)N1` [compound 9], the IC50 in [2] was 1 to 10 ng/mL (≈ 2.9 to 29 nM). In addition, the median effective dose (ED50) in [5] (setting [12]) was in the range of 0.01 to 0.03 mg/kg; in [5] (setting [13]), 0.003 to 0.01 mg/kg; in series [5] (setting [14]), 0.1 to 0.3 mg/kg. The LD50 at 168 h in [7] (ip, for the base) was 100 to 300 mg/kg; in series [7] (iv), 83 mg/kg; in [11] (for the base) it was 60 mg/kg. For the same molecule, the inhibition at 30 µg/mL in [1] (Canis lupus familiaris, final concentration 3 × 10^-5 g/ml, read-out: Change of Ma in %) is 13%. For the same molecule, the inhibition at 100 µg/mL in [1] (setting [15]) came to 20%. The inhibition at 10 µg/mL in series [1] (Canis lupus familiaris, final concentration 10^-5 g/ml, read-out: Change of Ma in %) came out at 11%. For the same molecule, the entries for the “Ma, maximum amplitude” value in series [1] (setting [16]), in [1] (final concentration 10^-4 g/ml) and in series [1] (final concentration 10^-5 g/ml) were 523, 483 and 535, respectively. The “Tr, time from start of rotation” value in series [1] (setting [16]) stood at 4.3 min; in [1] (final concentration 10^-4 g/ml), 4.0 min; in series [1] (final concentration 10^-5 g/ml), 4.6 min. The entries for the “angle α between the tangent” value in [1] (setting [16]), in [1] (final concentration 10^-4 g/ml) and in [1] (final concentration 10^-5 g/ml) were 86.6, 87.0 and 86.5, respectively.
With `CC1(C)CC(=O)N(CCN2CCN(c3ccccc3)CC2)C(=S)N1` [dihydrochloride hydrate], in series [8] (10% aqueous solution), the “pH value of a 10% aqueous solution” value is reported as “around 1.8”.
On to `CC1(C)CC(=O)N(CCN2CCN(c3ccccc3)CC2)C(=S)N1` [compound 18], for which, in [2], the IC50 was 0.1 to 1 ng/mL (≈ 0.289 to 2.89 nM). Also, the “Strength of activity (reduction in quantity of faeces)” value in series [4] (10 mg/kg p.o.) and in [4] (20 mg/kg p.o.) was “++ (from 50 to 75%)” throughout. Also, the 50% effective dose (ED50) in series [5] (setting [12]) is around 0.03 mg/kg; in series [5] (setting [13]), 0.001 to 0.003 mg/kg. For the same molecule, in [8], the “pH value of a 0.1% aqueous solution” value is “about 4.3”. The LD50 at 168 h was 100 to 150 mg/kg in series [7] (iv) and 66 mg/kg in series [11]. The inhibition at 100 µg/mL in [1] (setting [15]) was found to be 19%. In [1] (final concentration 10^-4 g/ml), the “Ma, maximum amplitude” value came to 328. The “Tr, time from start of rotation” value in [1] (final concentration 10^-4 g/ml) was 3.0 min. In addition, the “angle α between the tangent” value in series [1] (final concentration 10^-4 g/ml) came out at 85.8.
With `CN1CCC(=C2c3ccccc3CCc3sccc32)CC1` [Pizotyline], the serotonin antagonism entry in series [10] is given as “serotonin-antagonistic activities”.
Take `CC[C@@H](CO)NC(=O)[C@@H]1C=C2c3cccc4c3c(cn4C)C[C@H]2N(C)C1` [methysergide]: in series [10], the serotonin antagonism result is reported as “serotonin-antagonistic activities”.
